Here are results for 1 molecule from US7618990B2, “Oxazolidone derivatives as PR modulators” (Wyeth, priority 2006, dated 2009).

For series [1], the system named is alkaline phosphatase activity in T47D cells. Put plainly: Effects of progestins and antiprogestins on alkaline phosphatase activity in T47D cells (antagonist mode). Format: cell-based. The conditions noted are these: Homo sapiens, in the presence of 1 nM progesterone, 24 h, read-out: T47D Alkaline Phosphatase Activity IC50 (nM) or % inhibition.
The target of series [2] is T1, progesterone receptor (PR) (Homo sapiens, UniProt P06401).
T1 construct: in live, intact (whole) cells using the human breast carcinoma T47D cell line; endogenous in cells; host or cells: T47D human breast carcinoma cells
T1 sequence (P06401 1-933): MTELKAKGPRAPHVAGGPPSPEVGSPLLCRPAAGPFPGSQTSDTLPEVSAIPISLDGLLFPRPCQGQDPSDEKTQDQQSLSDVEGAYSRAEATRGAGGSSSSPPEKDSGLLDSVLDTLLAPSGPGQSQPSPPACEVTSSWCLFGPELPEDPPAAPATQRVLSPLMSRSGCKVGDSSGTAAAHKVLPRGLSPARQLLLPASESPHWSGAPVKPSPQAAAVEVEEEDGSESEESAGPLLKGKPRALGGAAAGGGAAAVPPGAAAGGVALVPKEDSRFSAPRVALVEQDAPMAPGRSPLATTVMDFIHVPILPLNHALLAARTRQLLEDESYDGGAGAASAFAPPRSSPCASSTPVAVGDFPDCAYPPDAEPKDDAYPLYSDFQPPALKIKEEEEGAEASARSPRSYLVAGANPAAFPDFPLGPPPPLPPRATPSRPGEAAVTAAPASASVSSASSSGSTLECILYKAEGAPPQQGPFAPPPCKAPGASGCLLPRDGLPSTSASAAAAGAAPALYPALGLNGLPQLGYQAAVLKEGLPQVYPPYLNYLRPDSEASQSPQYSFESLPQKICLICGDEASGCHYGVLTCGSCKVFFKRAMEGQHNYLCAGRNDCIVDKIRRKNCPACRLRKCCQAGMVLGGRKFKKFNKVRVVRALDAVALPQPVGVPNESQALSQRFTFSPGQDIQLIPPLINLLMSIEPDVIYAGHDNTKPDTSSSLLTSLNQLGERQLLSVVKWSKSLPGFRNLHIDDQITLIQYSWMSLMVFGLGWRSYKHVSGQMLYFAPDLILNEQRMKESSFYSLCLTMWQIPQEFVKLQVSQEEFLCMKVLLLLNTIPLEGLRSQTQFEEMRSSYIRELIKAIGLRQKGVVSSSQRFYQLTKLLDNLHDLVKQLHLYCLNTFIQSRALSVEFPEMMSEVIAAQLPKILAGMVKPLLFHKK
In words: Progesterone receptor whole cell competition binding assay using T47D cells. To be noted: intact T47D cells, 3 nM 3H-progesterone, 3 h at 37° C. On the procedure: (2) Progesterone Receptor Whole Cell Competition Binding Assay Using T47D Cells
PURPOSE: To evaluate the progesterone receptor (PR) binding activity of progestins or antiprogestins in live, intact (whole) cells using the human breast carcinoma T47D cell line and ^3H-progesterone as the labeled ligand.
Culture Medium: • 5% RC: phenol red free DMEM:F12 (1:1) (GIBCO, BRL) supplemented with 5% (v/v) charcoal stripped fetal bovine serum (not heat-inactivated), 100 U/mL penicillin, 100 μg/mL streptomycin, and 2 mM the GlutaMax™ reagent (GIBCO, BRL). • 10% RC: Same as above supplemented with 10% (v/v) FBS. • ^3H-Progesterone: Perkin Elmer Life Science, cat# NET-381 (typically around 102 Ci/mmol)
T47D cells were maintained in 10% RC media at 37° C. in a 5% CO2/humidified atmosphere and were split twice weekly for proper response. Cells were plated in 10% RC the day before binding assay at 50,000 cells per well in the white, clear bottom plates purchased through VWR or Perkin Elmer.
Cells plated the day prior to the assay in white clear bottom plates were used. A master compound plate was set up containing control and test compounds at 20× final desired concentration for the competition binding. A typical dose range of 20× concentrations were (in nM); 200,000; 20,000; 6000; 2000; 600; 200; 20; and 2. Final concentrations were (in nM); 10,000; 1000; 300; 100; 30; 10; 1; 0.1. Control compounds were typically run 10-fold lower than this and include a 0, or vehicle, control well. A stock of 60 nM ^3H-progesterone (20×) were also prepared at a volume needed of 10 μL per well.
Media on cells were replaced with 180 μL of 5% RC. Ten microliters (10 μL) of 60 nM ^3H-progesterone (for final concentration of 3 nM) was added immediately, followed by 10 μL of 20× test or control compounds. Compounds were incubated for 3 h at 37° C. (A time course study found no difference between 2 and 4 h incubation.)
Following incubation, media was carefully removed and cells were washed 3× with 200 μL 5% RC each wash. Fifty microliters of liquid scintillation cocktail was added and the plates were shaken vigorously for a minimum of 15 min. Plates were read on the Wallac Microbeta® 1450 plate reader.
Square root-transformed data were used for analysis of variance and calculation of IC50. SAS software (SAS Institute, Inc.) was used for all the statistical analysis.
Progesterone was used as a reference progestin and RU486 as a reference antiprogestin.

By IC50 is commonly meant the concentration needed to halve the response being measured. By Ki is commonly meant a dissociation constant, usually derived from enzyme kinetics or from competition with a known ligand. The low end stands for a stronger hold on the target, the high end for a looser hold on the target. Broadly, the melting point is the temperature, or range, at which the solid turns liquid. `O=C1NCCN1c1nc(-c2ccc(Br)cc2)cs1` [Example 75, 1-[4-(4-Bromophenyl)-1,3-thiazol-2-yl]imidazolidin-2-one] came in with a melting point of 230 to 233 °C. The IC50 in series [1] amounted to 1070 nM. In addition, in series [2], the Ki is 2.08 µM.
